Data published in US11466255B2, “Methods and compositions for converting non-endocrine pancreatic tissue into insulin-producing cells” (UNIVERSITY OF MIAMI, priority 2015, dated 2022).

System: hNEPT
Assay: C-peptide content (ELISA, normalised to DNA) of hNEPT
Format: cell-based, human
Method: hNEPT culture: Human islets were isolated at the DRI's cGMP facility following methods already described54, and hNEPT samples (2-4 ml) were obtained as an isolation byproduct. The cells were washed and seeded on tissue culture-treated plates in FBS- and trypsin inhibitor-supplemented RPMI 1640 medium (Gibco-Life Technologies, Grand Island, N.Y.). After 48 h, floating cells were removed with fresh medium replacement. The following day, cultures were either treated with 100 ng/ml BMP-7 (ProSpec-Tany TechnoGene; Ness Ziona, Israel) or remained in the starting medium as controls. Cells were allowed to grow 4-5 days and then the serum-containing medium was replaced by serum-free Advanced RPMI 1640 (Gibco-Life Technologies, Grand Island, N.Y.). Four to five days later the cells were either subjected to static incubation to evaluate their ability to respond to changing glucose concentration or collected for further assessments (such as C-peptide content, immunohistochemistry or cellular composition) or transplantation.
Glucose-stimulated insulin release (GSIR) and total insulin determination: GSIR was performed in six-well plate cultures. BMP-7-treated samples and untreated controls were washed twice with DMEM medium containing 2.5 mM glucose (Low glucose medium or L-medium). Upon addition of 2 ml of the same medium, the cells were cultured for 1 h at 37° C. to bring their insulin secretion to baseline. After 2 more washes, 1 ml of L-medium was added and the cells were returned to the incubator for 1 h. At the end of incubation period, the medium was collected and the cells exposed for 1 h to 1 ml of 20 mM glucose DMEM medium (high glucose medium or H-medium). After the collection of the H-medium supernatant, the cells were washed three times with L-medium and cultured again in low glucose conditions for 1 h. As before, supernatant was collected at the end of the incubation period. The second low glucose incubation is necessary to confirm that the cells are responding to glucose concentration changes in a physiological manner and not dumping insulin. After the last incubation, the cells were collected, washed in PBS and lysed with 1 ml of T-Per (Thermo Scientific, Rockford, Ill.). The lysates and the supernatants from GSIR test were evaluated with ELISA for C-peptide content (Mercodia, Uppsala, Sweden) following manufacturer's instructions. DNA content of the lysates was used to normalize the results (Pico-Green dsDNA Assay Kit, Life Technologies-Molecular Probes, Grand Island, N.Y.).

| Molecule | reduction of the BMP-7-mediated induction of C-peptide (dorsomorphin added to BMP-7, n=4) [fold] | C-peptide production induction vs. t=0 (BMP-4 vs BMP-7 comparison, n=6, P=0.43) [fold] |
| --- | --- | --- |
| c1cc(-c2cnn3cc(-c4ccc(OCCN5CCCCC5)cc4)cnc23)ccn1 [dorsomorphin, reference compound] | ~3 |  |
| BMP-4: member of the BMPs family of proteins that signals through ALK3 and ALK6; SEQ ID NO:3 (protein, listed as Homo sapiens, fragment of BMP-4) SPKHHSQRARKKNKNCRRHSLYVDFSDVGWNDWIVAPPGYQAFYCHGDCPFPLADHLNSTNHAIVQTLVNSVNSSIPKACCVPTELSAISMLYLDEYDKVVLKNYQEMVVEGCGCR |  | 198±62.8 |
